This is an account of results in patent publication US8980904B2, “Heterocyclic substituted pyrimidine compound” (Xuanzhu Pharma Co., Ltd., priority 2011, dated 2015).

In data set [1] the target is PDE-5A (Homo sapiens (Human), UniProt O76074). Description: Caliper Mobility-Shift PDE-5A Assay. It counts as biochemical. The settings on record: test compound; read-out: IC50 values for PDE-5A, PDE-5A. On the procedure: Caliper Mobility-Shift PDE-5A Assay:
A sample to be tested is precisely weighed, dissolved by adding DMSO, mixed sufficiently to form 10 mM solution.
The maximum final concentration of the compound was 10 μM. After incubation at 30° C. for 1 h, 20 μl of 70 μM EDTA was added to terminate reaction. Substrate and products were separated and analyzed by electrophoresis. Conversion rate was calculated by Caliper's Reviewer software, and inhibition rate was calculated by the following formulation, and IC50 was calculated from inhibition rate using Prism 5.0. Inhibition rate=[conversion rate (ZPE)−conversion rate (sample)]×100/[conversion rate (ZPE)−conversion rate (HPE)]
Notation: HPE: blank control without adding enzyme; ZPE: blank control without adding compound.

The conditions of data set [2]: rat, in vivo, 2 mg/kg.
Procedure: (§1) Avanafil as control drug and the compounds of the present invention (self-made) were dissolved with suitable solvents.
Instruments: API4000 LC-MS/MS
(§2) Chromatography column: Agilent XDB C18 (2.1×50 mm, 5 μm)
(§3) Blood sampling in rats: animals were fixed, tails were heated with water-bath at 10 min before each time point, about 100 μl of blood was collected via caudal vein, and the collected blood samples were placed in heparin sodium-containing anticoagulation tubes. The blood samples were centrifuged at 4° C. and 8,000 rpm for 6 min to obtain blood plasma samples, in which the blood plasma samples should be prepared with 30 min after blood sampling. The blood plasmas were stored in refrigerator with −80° C.
(§4) (1) Samples to be tested were taken out from refrigerator (−80° C.), melt at room temperature, then subjected to volution for 5 min;
(§5) (2) 20 μl of sample was precisely moved to 1.5 ml centrifuge tube;
(§6) (3) 200 μl of internal standard solution was added;
(§7) (4) After 5 min of volution, 5 min of centrifugation (12,000 rpm) was carried out;
(§8) (5) 100 μl of supernatant was precisely taken, 100 μl of water was added, subjected to volution for 5 min, and analyzed by LC-MS/MS.
(§9) Concentrations of samples to be tested (blood plasma samples) were the output results of Analyst 1.5.1 of AB SCIEX (Shanghai Aibocaisi Analytical Instruments Trading Co., Ltd.). Mean values, standard deviations and parameters such as variable coefficients were calculated by Microsoft Excel (when parameters were directly given by Analyst 1.5.1, they were not calculated). PK parameters were calculated using Pharsight Phoenix 6.1 software.
A short description of data set [3]: in vivo. The settings on record: Sprague-Dawley (SD), rat, iv, 1 mg/kg.
Procedure: as §1
Instruments: API4000 LC-MS/MS
as §2, §3, §4, §5, §6, §7, §8, §9

On to `COc1ccc(COc2nc(N3C4CCC3COC4)ncc2C(=O)NCc2ccccc2)cc1Cl` [Compound 2, N-benzyl-2-(3-oxa-8-azadicyclo[3.2.1]octan-8-yl)-4-(3-chloro-4-methoxybenzyloxy)pyrimidine-5-carboxamide], for which, in data set [1], the IC50 turned out to be 4.01 nM. Besides, the “t1/2 (h) PO” value in data set [2] was “No”. The same compound had a half-life in data set [3] of 1.51 h.

As usually defined, the IC50 is the concentration that gives 50% inhibition. In general, half-life refers to how long it takes for the measured level to halve. Low values mean rapid decline, high ones slow decline.
